# Data from ChEMBL document CHEMBL5214910, “Rational Design of Dipicolylamine-Containing Carbazole Amphiphiles Combined with Zn2+ as Potent Broad-Spectrum Antibacterial Agents with a Membrane-Disruptive Mechanism” (J Med Chem, 2021).
# How the values were obtained:
# [1] = system: Acinetobacter baumannii; assay: Antibacterial activity against Acinetobacter baumannii ATCC 17978 assessed as inhIbition of bacterial growth incubated for 24 hrs in the presence of 12.5 ug/mL Zn2+ by Muller hinton broth based dilution assay; format: functional
# [2] = system: Acinetobacter baumannii; assay: Antibacterial activity against Acinetobacter baumannii R2889 assessed as inhIbition of bacterial growth incubated for 24 hrs by Muller hinton broth based dilution assay; format: functional
# [3] = system: Staphylococcus aureus; assay: Antibacterial activity against Methicillin-resistant Staphylococcus aureus NCTC10442 assessed as inhibition of bacterial growth incubated for 24 hrs in the presence of […] ug/mL Zn2+ by Muller hinton broth based dilution assay; format: functional
# [4] = system: Staphylococcus aureus; assay: Antibacterial activity against Staphylococcus aureus ATCC 29213 assessed as log reduction in bacterial count at 4 times of MIC incubated for 1 hrs in the presence of 12.5 ug/ml Zn2+ by Muller hinton agar based time kill assay; format: functional
# [5] = system: Escherichia coli; assay: Antibacterial activity against Escherichia coli ATCC 25922 assessed as inhibition of bacterial growth by measuring salt resistance incubated for 24 hrs in the presence of 12.5 ug/ml Zn2+ and 175.5 ug/ml K+ by Muller hinton broth based dilution assay; format: functional
# [6] = system: Staphylococcus aureus; assay: Antibacterial activity against Methicillin-resistant Staphylococcus aureus N315 assessed as inhibition of bacterial growth by measuring salt resistance incubated for 24 hrs in the presence of 12.5 ug/ml Zn2+ and 100 ug/ml Ca2+ by Muller hinton broth based dilution assay; format: functional
# [7] = system: Lipopolysaccharide (LPS); assay: Displacement of BODIPY-TR-cadaverin from Pseudomonas aeruginosa Lipopolysaccharide at 8 times of MIC incubated for 30 mins in the presence of 12.5 ug/ml Zn2+ by fluorescence based microplate reader analysis relative to control
# [8] = system: Lipopolysaccharide (LPS); assay: Displacement of BODIPY-TR-cadaverin from Pseudomonas aeruginosa Lipopolysaccharide at 2 times of MIC incubated for 30 mins in the presence of 12.5 ug/ml Zn2+ by fluorescence based microplate reader analysis relative to control
# [9] = system: Escherichia coli; assay: Antibacterial activity against Escherichia coli ATCC 25922 assessed as inhibition of bacterial growth by measuring salt resistance incubated for 24 hrs in the presence of 12.5 ug/ml Zn2+ and 100 ug/ml Ca2+ by Muller hinton broth based dilution assay; format: functional
# [10] = system: Staphylococcus aureus; assay: Antibacterial activity against Methicillin-resistant Staphylococcus aureus NCTC10442 assessed as inhibition of bacterial growth incubated for 24 hrs in the presence of 12.5 ug/mL Zn2+ by Muller hinton broth based dilution assay; format: functional
# [11] = system: Staphylococcus aureus; assay: Antibacterial activity against Staphylococcus aureus ATCC 29213 assessed as inhibition of bacterial growth by measuring salt resistance incubated for 24 hrs in the presence of 12.5 ug/ml Zn2+ and 3220 ug/ml Na+ by Muller hinton broth based dilution assay; format: functional
# [12] = system: Cell membrane; assay: Induction of outer membrane permeabilization in Escherichia coli ATCC 25922 assessed as increase in fluorescence intensity at 2 times to 8 times MIC measured for 1 hrs in the presence of 12.5 ug/ml Zn2+ by NPN uptake assay; format: subcellular; conditions: DDE = dose-dependent effect
# [13] = system: Pseudomonas aeruginosa; assay: Antibacterial activity Pseudomonas aeruginosa ATCC 9027 assessed as inhibition of bacterial growth incubated for 24 hrs by Muller hinton broth based dilution assay; format: functional
# [14] = Cytotoxicity against mouse NCTC clone 929 cells assessed as reduction in cell survival at 16 times to 32 times of MIC incubated for 24 hrs in the presence of 12.5 ug/ml of Zn2+ by CCK8 assay relative to control; format: toxicity, cell-based; conditions: nctc clone 929, 24 h
# [15] = system: Pseudomonas aeruginosa; assay: Antibacterial activity against Pseudomonas aeruginosa ATCC 9027 in C57BL/6 mouse model of bacterial keratitis assessed as log reduction in viable bacterial count in infected cornea at 0.5 % pre-infected with bacteria for 24 hrs followed by topical administration of compound four times a day for 3 days in the presence of 12.5 ug/ml of Zn2+; format: functional; conditions: route top, time 3 day
# [16] = system: Staphylococcus aureus; assay: Antibacterial activity against Staphylococcus aureus ATCC 29213 assessed as inhibition of bacterial growth incubated for 24 hrs in the presence of 50 ug/mL Zn2+ by Muller hinton broth based dilution assay; format: functional
# [17] = system: Escherichia coli; assay: Antibacterial activity Escherichia coli ATCC 25922 assessed as inhibition of bacterial growth incubated for 24 hrs in the presence of 25 ug/mL Zn2+ by Muller hinton broth based dilution assay; format: functional
# [18] = system: Escherichia coli; assay: Antibacterial activity against Escherichia coli ATCC 25922 assessed as log reduction in bacterial count at 8 times of MIC incubated for 30 mins in the presence of 12.5 ug/ml Zn2+ by Muller hinton agar based time kill assay; format: functional; conditions: 0.5 h
# [19] = system: Pseudomonas aeruginosa; assay: Antibacterial activity Pseudomonas aeruginosa ATCC 9027 assessed as inhibition of bacterial growth incubated for 24 hrs in the presence of 0.78 ug/mL Zn2+ by Muller hinton broth based dilution assay; format: functional
# [20] = system: Pseudomonas aeruginosa; assay: Antibacterial activity Pseudomonas aeruginosa ATCC 9027 assessed as inhibition of bacterial growth incubated for 24 hrs in the presence of 25 ug/mL Zn2+ by Muller hinton broth based dilution assay; format: functional
# [21] = system: Pseudomonas aeruginosa; assay: Antibacterial activity Pseudomonas aeruginosa ATCC 9027 assessed as inhibition of bacterial growth incubated for 24 hrs in the presence of 3.125 ug/mL Zn2+ by Muller hinton broth based dilution assay; format: functional
# [22] = system: Staphylococcus aureus; assay: Antibacterial activity against Staphylococcus aureus ATCC 29213 assessed as inhibition of bacterial growth incubated for 24 hrs in the presence of 0.78 ug/mL Zn2+ by Muller hinton broth based dilution assay; format: functional
# [23] = system: Lipopolysaccharide (LPS); assay: Displacement of BODIPY-TR-cadaverin from Pseudomonas aeruginosa Lipopolysaccharide at 4 times of MIC incubated for 30 mins by fluorescence based microplate reader analysis relative to control
# [24] = system: Lipopolysaccharide (LPS); assay: Displacement of BODIPY-TR-cadaverin from Pseudomonas aeruginosa Lipopolysaccharide at 4 times of MIC incubated for 30 mins in the presence of 12.5 ug/ml Zn2+ by fluorescence based microplate reader analysis relative to control
# [25] = system: Staphylococcus aureus; assay: Antibacterial activity against Staphylococcus aureus ATCC 29213 assessed as inhibition of bacterial growth by measuring salt resistance incubated for 24 hrs in the presence of 12.5 ug/ml Zn2+ and 100 ug/ml Ca2+ by Muller hinton broth based dilution assay; format: functional
# [26] = system: Lipopolysaccharide (LPS); assay: Displacement of BODIPY-TR-cadaverin from Pseudomonas aeruginosa Lipopolysaccharide at 16 times of MIC incubated for 30 mins in the presence of 12.5 ug/ml Zn2+ by fluorescence based microplate reader analysis relative to control
# [27] = Ratio of MIC for antibacterial activity against Escherichia coli ATCC 25922 to MIC for antibacterial activity against Escherichia coli ATCC 25922 in the presence of Zn2+; format: functional
# [28] = system: Staphylococcus aureus; assay: Antibacterial activity against Methicillin-resistant Staphylococcus aureus NCTC10442 assessed as inhibition of bacterial growth incubated for 24 hrs in the presence of 25 ug/mL Zn2+ by Muller hinton broth based dilution assay; format: functional
# [29] = Hemolytic activity in rabbit RBC incubated for 1 hrs by fluorescence based microplate reader assay; format: toxicity, cell-based, Oryctolagus cuniculus, Erythrocyte; conditions: rabbit red blood cells (erythrocytes)
# [30] = system: Pseudomonas aeruginosa; assay: Antibacterial activity Pseudomonas aeruginosa ATCC 9027 assessed as inhibition of bacterial growth incubated for 24 hrs in the presence of 50 ug/mL Zn2+ by Muller hinton broth based dilution assay; format: functional
smiles,measurement,setting,value
CC(C)=CCn1c2ccccc2c2c(OCC(O)CN(Cc3ccccn3)Cc3ccccn3)cccc21 (stereo not given),MIC,[1],0.78 mg/L
same,MIC,[2],3.12 mg/L
same,MIC,[3],1.56 mg/L
same,log(activity),[4],3.03
same,MIC,[5],1.56 mg/L
same,MIC,[6],3.12 mg/L
same,Activity,[7],83.4%
same,Activity,[8],39.1%
same,MIC,[9],6.25 mg/L
same,MIC,[10],1.56 mg/L
same,MIC,[11],1.56 mg/L
same,Activity,[12],Dde
same,MIC,[13],> 50 mg/L
same,Activity,[14],71.58%
same,log(activity),[15],4.46
same,MIC,[16],0.78 mg/L
same,MIC,[17],1.56 mg/L
same,log(activity),[18],3.59
same,MIC,[19],> 50 mg/L
same,MIC,[20],3.12 mg/L
same,MIC,[21],12.5 mg/L
same,MIC,[22],3.12 mg/L
same,Activity,[23],-0.56%
same,Activity,[24],59.5%
same,MIC,[25],3.12 mg/L
same,Activity,[26],91%
same,Ratio,[27],2
same,MIC,[28],0.78 mg/L
same,HC50 at 1 h,[29],> 200 µg/mL
same,MIC,[30],3.12 mg/L
